# Test results taken from ChEMBL document CHEMBL5154770, “Discovery of novel ataxia telangiectasia mutated (ATM) kinase modulators: Computational simulation, biological evaluation and cancer combinational chemotherapy study” (Eur J Med Chem, 2022).
# pIC50: −log10 of the molar value. Active and inactive are the calls of the source. No cut-off for these calls is given here.
# Assays:
# SW480 [1] = experiment: Antiproliferative activity against human SW480 cells measured after 3 days by SRB assay; assay type: functional, cell-based; details: SW480, 72 h
# MCF7 [2] = experiment: Antiproliferative activity against human MCF7 cells measured after 6 days by SRB assay; assay type: functional, cell-based; details: MCF7, 144 h
# HEK293 = experiment: Cytotoxicity against human HEK293 cells at 100 uM; assay type: toxicity, cell-based; details: hek293, 100 µM
# MCF7 [3] = experiment: Antiproliferative activity against human MCF7 cells measured after 2 days by SRB assay; assay type: functional, cell-based; details: MCF7, 48 h
# SW480 [4] = experiment: Antiproliferative activity against human SW480 cells measured after 9 days by SRB assay; assay type: functional, cell-based; details: SW480, 216 h
# MDCK = experiment: Cytotoxicity against dog MDCK cells at 100 uM; assay type: toxicity, cell-based, Canis lupus familiaris
# [5] = Toxicity in BALB/c nude mouse xenografted with human SW480 cells assessed as effect on body weight at 30 mg/kg, iv; assay type: organism-based; details: in vivo
# [6] = target: T1, Serine-protein kinase ATM (Homo sapiens, UniProt Q13315); experiment: Binding affinity towards ATM (unknown origin) assessed as increase in thermal stability of ATM at 30 uM measured by thermal shift assay
# T1 sequence (Q13315 whole entry): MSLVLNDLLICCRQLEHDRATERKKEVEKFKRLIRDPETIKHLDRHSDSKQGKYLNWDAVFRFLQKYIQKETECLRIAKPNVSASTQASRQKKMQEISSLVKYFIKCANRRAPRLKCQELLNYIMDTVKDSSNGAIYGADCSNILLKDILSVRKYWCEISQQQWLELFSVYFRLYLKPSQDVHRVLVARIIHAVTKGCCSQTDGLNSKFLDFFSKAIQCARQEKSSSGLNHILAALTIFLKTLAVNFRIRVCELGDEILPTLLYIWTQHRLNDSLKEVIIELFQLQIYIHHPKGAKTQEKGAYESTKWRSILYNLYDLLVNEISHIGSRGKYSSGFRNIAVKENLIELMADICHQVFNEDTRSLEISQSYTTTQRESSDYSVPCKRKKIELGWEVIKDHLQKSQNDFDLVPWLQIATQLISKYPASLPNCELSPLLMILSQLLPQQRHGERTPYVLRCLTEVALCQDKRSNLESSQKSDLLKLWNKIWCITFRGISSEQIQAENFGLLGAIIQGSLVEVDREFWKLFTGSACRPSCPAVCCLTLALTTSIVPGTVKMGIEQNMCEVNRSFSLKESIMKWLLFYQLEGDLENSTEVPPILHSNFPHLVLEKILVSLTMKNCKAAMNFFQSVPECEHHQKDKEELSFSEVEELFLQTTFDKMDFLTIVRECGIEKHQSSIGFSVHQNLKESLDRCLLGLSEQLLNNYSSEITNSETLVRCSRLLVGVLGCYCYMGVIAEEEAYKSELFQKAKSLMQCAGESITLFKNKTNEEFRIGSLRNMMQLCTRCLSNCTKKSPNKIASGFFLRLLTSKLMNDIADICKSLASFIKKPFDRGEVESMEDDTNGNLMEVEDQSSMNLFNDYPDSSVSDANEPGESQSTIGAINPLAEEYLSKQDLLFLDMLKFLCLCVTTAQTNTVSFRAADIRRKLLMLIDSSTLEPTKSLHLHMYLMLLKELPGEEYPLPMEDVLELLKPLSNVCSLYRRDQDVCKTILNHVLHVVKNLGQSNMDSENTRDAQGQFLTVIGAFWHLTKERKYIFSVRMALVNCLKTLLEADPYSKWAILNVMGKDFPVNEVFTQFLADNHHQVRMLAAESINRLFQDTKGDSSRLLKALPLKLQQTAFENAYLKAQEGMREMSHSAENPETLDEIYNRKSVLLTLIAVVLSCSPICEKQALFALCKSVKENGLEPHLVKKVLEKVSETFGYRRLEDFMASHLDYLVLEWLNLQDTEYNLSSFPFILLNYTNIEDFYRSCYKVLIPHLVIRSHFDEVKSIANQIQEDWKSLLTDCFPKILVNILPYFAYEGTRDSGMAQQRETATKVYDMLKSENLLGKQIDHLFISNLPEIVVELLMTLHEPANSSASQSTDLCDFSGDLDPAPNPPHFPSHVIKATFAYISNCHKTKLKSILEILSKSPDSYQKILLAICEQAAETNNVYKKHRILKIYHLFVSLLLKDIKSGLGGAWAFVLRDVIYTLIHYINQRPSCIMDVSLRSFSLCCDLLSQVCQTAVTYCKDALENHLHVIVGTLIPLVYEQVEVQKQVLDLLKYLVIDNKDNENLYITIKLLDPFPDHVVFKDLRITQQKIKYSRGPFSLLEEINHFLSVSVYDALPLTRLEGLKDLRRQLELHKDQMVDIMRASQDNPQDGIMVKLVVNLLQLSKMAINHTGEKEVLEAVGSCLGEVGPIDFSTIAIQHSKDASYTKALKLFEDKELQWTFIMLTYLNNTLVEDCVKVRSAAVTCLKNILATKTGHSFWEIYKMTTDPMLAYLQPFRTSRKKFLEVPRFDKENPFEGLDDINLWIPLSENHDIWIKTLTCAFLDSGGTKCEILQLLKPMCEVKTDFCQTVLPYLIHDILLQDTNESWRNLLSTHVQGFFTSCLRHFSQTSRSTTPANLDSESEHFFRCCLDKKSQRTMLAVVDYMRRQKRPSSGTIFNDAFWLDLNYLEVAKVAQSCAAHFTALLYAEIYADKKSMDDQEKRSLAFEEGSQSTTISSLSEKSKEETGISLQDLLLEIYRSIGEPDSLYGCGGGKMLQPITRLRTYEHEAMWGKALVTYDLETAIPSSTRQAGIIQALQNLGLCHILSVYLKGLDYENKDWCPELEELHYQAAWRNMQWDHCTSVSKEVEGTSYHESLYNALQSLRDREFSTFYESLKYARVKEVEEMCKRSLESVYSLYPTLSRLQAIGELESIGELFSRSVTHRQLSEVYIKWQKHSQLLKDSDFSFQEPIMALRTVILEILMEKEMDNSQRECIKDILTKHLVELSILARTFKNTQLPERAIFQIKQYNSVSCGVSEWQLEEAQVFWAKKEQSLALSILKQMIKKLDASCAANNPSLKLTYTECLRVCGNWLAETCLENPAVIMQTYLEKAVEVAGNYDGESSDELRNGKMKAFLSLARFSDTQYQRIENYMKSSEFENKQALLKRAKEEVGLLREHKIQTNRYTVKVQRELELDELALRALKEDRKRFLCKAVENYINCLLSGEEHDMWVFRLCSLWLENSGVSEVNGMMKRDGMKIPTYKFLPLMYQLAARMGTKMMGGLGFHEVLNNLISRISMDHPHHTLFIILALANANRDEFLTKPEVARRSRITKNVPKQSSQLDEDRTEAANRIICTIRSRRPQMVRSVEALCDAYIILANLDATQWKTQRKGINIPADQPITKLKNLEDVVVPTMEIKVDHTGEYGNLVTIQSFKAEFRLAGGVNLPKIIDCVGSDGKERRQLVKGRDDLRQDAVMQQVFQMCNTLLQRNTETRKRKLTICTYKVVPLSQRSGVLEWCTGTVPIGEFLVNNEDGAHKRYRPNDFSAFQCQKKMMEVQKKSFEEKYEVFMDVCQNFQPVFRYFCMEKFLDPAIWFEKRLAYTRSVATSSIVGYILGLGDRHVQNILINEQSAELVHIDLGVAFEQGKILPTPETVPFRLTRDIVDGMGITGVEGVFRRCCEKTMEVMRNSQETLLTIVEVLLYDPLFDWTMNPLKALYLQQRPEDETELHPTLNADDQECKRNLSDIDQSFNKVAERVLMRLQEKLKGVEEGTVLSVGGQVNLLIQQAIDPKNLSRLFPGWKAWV
# [7] = target: T1, Serine-protein kinase ATM; experiment: Inhibition of ATM in human MCF7 cells assessed as increase in pKAP1 level at 12.5 to 18 uM measured by western blot analysis; assay type: cell-based; details: dose 12.5-18 µM
# [8] = target: T1, Serine-protein kinase ATM; experiment: Inhibition of ATM in human MCF7 cells assessed as increase in pATM level at 12.5 to 18 uM measured by western blot analysis; assay type: cell-based; details: dose 12.5-18 µM
# [9] = target: T1, Serine-protein kinase ATM; experiment: Inhibition of ATM in human MCF7 cells assessed as decrease in pKAP-1 level measured by In-cell western assay; assay type: cell-based
# [10] = target: T1, Serine-protein kinase ATM; experiment: Competitive inhibition of ATM (unknown origin) measured by ATP-competitive binding assay
# MCF7 [11] = experiment: Antiproliferative activity against human MCF7 cells assessed as growth inhibition at 100 uM measured after 2 days by SRB assay; assay type: functional; details: MCF7, 48 h, time 2 day, read-out: GI
# [12] = target: T1, Serine-protein kinase ATM; experiment: Activation of ATM in human MCF7 cells assessed as increase in pKAP1 level at 30 uM in presence of 25 uM etoposide measured by western blot analysis; assay type: cell-based; details: filed as activator
# [13] = target: T1, Serine-protein kinase ATM; experiment: Activation of ATM in human MCF7 cells assessed as increase in pKAP-1 level at 0.001 to 100 uM measured by In-cell western assay; assay type: cell-based; details: filed as activator, dose 0.001-100 µM
# [14] = target: T1, Serine-protein kinase ATM; experiment: Activation of ATM in human MCF7 cells assessed as increase in pATM level at 30 uM in presence of 25 uM etoposide measured by western blot analysis; assay type: cell-based; details: filed as activator
# SW480 [15] = experiment: Antiproliferative activity against human SW480 cells assessed as growth inhibition at 100 uM measured after 3 days by SRB assay; assay type: functional; details: SW480, 72 h, time 3 day, read-out: GI
pIC50 (SW480 [1]),pIC50 (MCF7 [3]),SMILES,Activity (HEK293),Activity (MDCK),further results
4.88,4.92,C[C@@H]1CN(CC(=O)Nc2ccc3c(c2)Cc2cccc(-c4cc(=O)cc(N5CCOCC5)o4)c2S3)C[C@H](C)O1,Non-Toxic,Non-Toxic,pIC50 (MCF7 [2]): 5.55; pIC50 (SW480 [4]): 5.48
5.31,5.20,OCCNCc1c(OCc2ccc(Cl)cc2Cl)ccc2ccccc12,Non-Toxic,Non-Toxic,pIC50 (MCF7 [2]): 4.67; Activity [5]: Non-Toxic; Activity [6]: Active; inhibition [7]: Active; inhibition [8]: Active; pIC50 (SW480 [4]): 5.26; pIC50 [9]: 4.48
5.96,6.22,CN(C)CCCOc1ccc(-c2ccc3ncc4c(c3c2)n(C2CCOCC2)c(=O)n4C)cn1,Non-Toxic,Non-Toxic,–
4.83,4.88,CCN(CC)CCCC(C)Nc1ccnc2cc(Cl)ccc12 (stereo not drawn) [CHLOROQUINE],–,–,–
–,–,CNC(=O)c1ccc(-c2cnc3cnc(-c4ccccc4)cn23)cc1,–,–,pIC50 [10]: 6.51
4.58,4.61,O=c1cc(-c2cccc3c2Sc2ccccc2S3)oc(N2CCOCC2)c1 [KU-55933],Non-Toxic,Non-Toxic,–
< 4.00,< 4.00,COc1ccc(C(=O)NC(=S)Nc2cccc(-c3nc4ncccc4o3)c2)cc1Cl,Non-Toxic,Non-Toxic,inhibition of growth at 100 µM (MCF7 [11]): < 20%; Activity [12]: Active; Activity [13]: Active; Activity ([6]; filed as activator): Active; Activity [14]: Active; inhibition of growth at 100 µM (SW480 [15]): < 20%
